Experimental data reported in US12558428B2, “Heterobifunctional compounds and their use in treating disease” (Halda Therapeutics OpCo, Inc., priority 2024, dated 2026).
Like-named read-outs stand apart in the source and are kept apart here.

What was measured:
Format in all cases: cell-based
[1] = system: T-Rex 293 cells having increased expression of estrogen receptor alpha protein; assay: Cellular growth inhibition assay, T-Rex 293 cells, (+) doxycycline; conditions: 72 hours
Procedure, shortened: (§1)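 ERα overexpression was switched on by 3 ng/mL doxycycline in a stably transfected T-Rex 293 clone, while uninduced cells served as the comparison line. Proliferation over 72 h of compound treatment was assessed by ATP luminescence, and GI50 values came from four-parameter curves.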

[2] = system: MCF7 cells (ATCC #HTB-22); assay: Cellular growth inhibition assay, MCF7 cells purchased from ATCC; conditions: Table 8-A, MCF7 cells purchased from ATCC, six days, CellTiter-Glo, read-out: GI50
Procedure, shortened: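 MCF7 cells in RPMI 1640 with 10% FBS and 0.2 U/ml insulin, seeded at 1,500 cells/well (ATCC) or 225 cells/well (ECACC). Compounds added 24 h later, then 6 days at 37° C. Viability by CellTiter-Glo 2.0 luminescence. GI50 from four-parameter fit.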

[3] = system: T-Rex 293 cells lacking increased expression of estrogen receptor alpha protein; assay: Cellular growth inhibition assay, T-Rex 293 cells, (−) doxycycline; conditions: 72 hours
Procedure, shortened: as §1

[4] = T-REx-293, 72 h, Table 7-A, T-Rex 293 cells with doxycycline (increased ERα expression), CellTiter-Glo, read-out: (+) Dox GI50
[5] = T-REx-293, 72 h, Table 7-A, T-Rex 293 cells without doxycycline (lacking increased ERα expression), CellTiter-Glo, read-out: (−) Dox GI50
[6] = T-REx-293, 72 h, T-Rex 293 cells with doxycycline-induced ERα expression, CellTiter-Glo 2.0, read-out: (+) Dox TRex ERa (GI50)
[7] = T-REx-293, 72 h, T-Rex 293 cells without doxycycline, CellTiter-Glo 2.0, read-out: (−) Dox TRex ERa (GI50)

Row | GI50 ([2]; Homo sapiens, MCF7, 144 h) | SMILES | GI50 [1, 4] | GI50 [3, 5] | further results
1 | 50 to 500 nM | Cc1sc2c(c1C)C(c1ccc(N3CCN(CC4CCN(c5ncc([C@@H]6c7ccc(O)cc7CC[C@@H]6c6ccccc6)cn5)CC4)CC3)cc1)=N[C@@H](C)c1nnc(C)n1-2 [III-123] | < 50 nM | 500 to 2500 nM | 
2 | < 50 nM | Cc1sc2c(c1C)C(c1ccc(N3CC(CN4CCN(CC5CN(c6ccc(C7=C(c8ccc(F)cc8)CCCc8cc(C(=O)O)ccc87)cc6)C5)CC4)C3)cc1)=N[C@@H](C)c1nnc(C)n1-2 [IV-38] | < 50 nM | 500 to 2500 nM | 
3 | 50 to 500 nM | Cc1sc2c(c1C)C(c1ccc(C3CCN(CC4(O)CCN(c5ccc([C@H]6c7ccc(O)cc7CC[C@H]6c6ccccc6)cc5)CC4)CC3)cc1)=N[C@@H](C)c1nnc(C)n1-2 [III-27] | < 50 nM | 50 to 500 nM | 
4 | 50 to 500 nM | Cc1sc2c(c1C)C(c1ccc(N3CC(CN4CCC(O)(CN5CC(c6ccc([C@@H]7c8ccc(O)cc8CC[C@@H]7c7ccccc7)cc6)C5)CC4)C3)cc1)=N[C@@H](C)c1nnc(C)n1-2 [III-177] | < 50 nM | 50 to 500 nM | 
5 |  | CCN(Cc1ccc(CCN2CC[C@@H](OCCOCCOc3ccc(C4=N[C@@H](C)c5nnc(C)n5-c5sc(C)c(C)c54)cc3)C2)cc1)c1cc(OC)ccc1C1CCc2cc(O)ccc2C1 (stereo partly drawn) [I-34b, (S)-6-(2-(ethyl(4-(2-((R)-3-(2-(2-(4-((S)-2,3,6,9-tetramethyl-6H-thieno[3,2-f][1,2,4]triazolo[4,3-a][1,4]diazepin-4-yl)phenoxy)ethoxy)ethoxy)pyrrolidin-1-yl)ethyl)benzyl)amino)-4-methoxyphenyl)-5,6,7,8-tetrahydronaphthalen-2-ol] |  |  | GI50 ([1]; Table 7-A, T-Rex 293 cells with doxycycline (increased ERα expression), CellTiter-Glo, read-out: (+) Dox GI50): < 50 nM; GI50 [2]: 50 to 500 nM; GI50 ([3]; Table 7-A, T-Rex 293 cells without doxycycline (lacking increased ERα expression), CellTiter-Glo, read-out: (−) Dox GI50): 500 to 2500 nM
6 | < 50 nM | Cc1sc2c(c1C)C(c1ccc(N3CC4(CC(CN5CCC(c6ccc(C7=C(c8ccccc8)CCCc8cc(C(=O)O)ccc87)cc6)CC5)C4)C3)cc1)=N[C@@H](C)c1nnc(C)n1-2 [IV-41] | < 50 nM | 50 to 500 nM | 
7 | < 50 nM | Cc1sc2c(c1C)C(c1ccc(N3CCC(O)(CN4CCN(c5ccc([C@@H]6c7ccc(O)cc7CC[C@@H]6c6c(F)cccc6F)c(F)c5)CC4)CC3)cc1)=N[C@@H](C)c1nnc(C)n1-2 [III-293] | < 50 nM | 500 to 2500 nM | 
8 | 50 to 500 nM | Cc1sc2c(c1C)C(c1ccc(N3CCC(CN4CCC(c5ccc(C6=C(c7ccc(Cl)cc7Cl)CCCc7cc(C(=O)O)ccc76)cc5)CC4)CC3)cc1)=N[C@@H](C)c1nnc(C)n1-2 [IV-6] | 50 to 500 nM | 500 to 2500 nM | 
9 | < 50 nM | Cc1sc2c(c1C)C(c1ccc(OCCC3CCN(CCOc4ccc(C(=O)c5c(-c6ccc(O)cc6)sc6cc(O)ccc56)cc4)CC3)cc1)=N[C@@H](Cc1ncco1)c1nnc(C)n1-2 [I-13, (S)-(6-hydroxy-2-(4-hydroxyphenyl)benzo[b]thiophen-3-yl)(4-(2-(4-(2-(4-(2,3,9-trimethyl-6-(oxazol-2-ylmethyl)-6H-thieno[3,2-f][1,2,4]triazolo[4,3-a][1,4]diazepin-4-yl)phenoxy)ethyl)piperidin-1-yl)ethoxy)phenyl)methanone] |  |  | GI50 [1, 6]: < 50 nM; GI50 [3, 7]: 50 to 500 nM
10 | 50 to 500 nM | CC1=C(c2c(F)cc(F)cc2F)C(c2ccc(N3CCC4(CCN(C(=O)Cc5ccc(C6=N[C@@H](C)c7nnc(C)n7-c7sc(C)c(C)c76)cc5)C4)CC3)cc2)Oc2ccc(O)cc21 (stereo partly drawn) [V-18] | 50 to 500 nM | 50 to 500 nM | 
11 | < 50 nM | Cc1sc2c(c1C)C(c1ccc(N3CC4(CCC(O)(CN5CCN(c6cc(F)c([C@@H]7c8ccc(O)cc8CC[C@@H]7c7ccc(F)cc7)c(F)c6)CC5)CC4)C3)cc1)=N[C@@H](C)c1nnc(C)n1-2 [III-266] | < 50 nM | 500 to 2500 nM | 
12 | < 50 nM | Cc1sc2c(c1C)C(c1ccc(N3CCC(O)(CN4CCN(c5ccc([C@@H]6c7ccc(O)cc7CC[C@@H]6c6ccc(F)cc6)cc5F)CC4)CC3)cc1)=N[C@@H](C)c1nnc(C)n1-2 [III-251, 4-((4-(2-fluoro-4-((1R,2S)-2-(4-fluorophenyl)-6-hydroxy-1,2,3,4-tetrahydronaphthalen-1-yl)phenyl)piperazin-1-yl)methyl)-1-(4-((S)-2,3,6,9-tetramethyl-6H-thieno[3,2-f][1,2,4]triazolo[4,3-a][1,4]diazepin-4-yl)phenyl)piperidin-4-ol] | < 50 nM | 500 to 2500 nM | 
13 | > 2500 nM | CC1=C(c2c(F)cc(F)cc2F)[C@H](c2ccc(N3CCN(CC4CCN(c5ccc(C6=N[C@H](C)c7nnc(C)n7-c7sc(C)c(C)c76)cc5)CC4)CC3)cc2)Oc2ccc(O)cc21 [V-24] | > 2500 nM | > 2500 nM | 
14 | 500 to 2500 nM | CC1=C(c2c(F)cc(F)cc2F)[C@@H](c2ccc(OCCN3CCC[C@@]4(CCN(c5ccc(C6=N[C@@H](C)c7nnc(C)n7-c7sc(C)c(C)c76)cc5)C4)C3)cc2)Oc2ccc(O)cc21 [V-10] | 500 to 2500 nM | 500 to 2500 nM | 
15 | < 50 nM | Cc1cc(N2CCC(O)(CN3CCN(c4ccc([C@H]5c6ccc(O)cc6CC[C@H]5c5ccc(F)cc5F)cc4)CC3)CC2)ccc1Oc1ccc(C(C)(C)O)cc1-c1cn(C)c(=O)c2[nH]ccc12 [V-40] |  |  | GI50 ([1]; T-REx-293, 72 h, Table 7-B, T-Rex 293 cells with doxycycline (increased ERα expression), CellTiter-Glo, read-out: (+) Dox GI50): < 50 nM; GI50 ([3]; T-REx-293, 72 h, Table 7-B, T-Rex 293 cells without doxycycline (lacking increased ERα expression), CellTiter-Glo, read-out: (−) Dox GI50): 500 to 2500 nM
16 | < 50 nM | Cc1sc2c(c1C)C(c1ccc(N3CCC4(CC3)CN(CC3CN(c5ccc([C@@H]6c7ccc(O)cc7CC[C@@H]6c6ccccc6)cc5)C3)C4)cc1)=N[C@@H](C)c1nnc(C)n1-2 [III-108] | < 50 nM | 50 to 500 nM | 
17 | 50 to 500 nM | Cc1sc2c(c1C)C(c1ccc(N3CC(CN4CC(Oc5ccc([C@H]6c7ccc(O)cc7CC[C@H]6c6ccccc6)cc5)C4)C3)cc1)=N[C@@H](C)c1nnc(C)n1-2 [III-100] | 50 to 500 nM | 50 to 500 nM | 
18 | < 50 nM | Cc1sc2c(c1C)C(c1ccc(NCCN3CCN(CCOc4ccc([C@@H]5c6ccc(O)cc6CC[C@@H]5c5ccccc5)cc4)CC3)cc1)=N[C@@H](Cc1ncco1)c1nnc(C)n1-2 [III-103] | < 50 nM | 50 to 500 nM | 
19 | < 50 nM | Cc1sc2c(c1C)C(c1ccc(C#CC3CC4(CCN(CCOc5ccc(C(=O)c6c(-c7ccc(O)cc7)sc7cc(O)ccc67)cc5)CC4)C3)cc1)=N[C@@H](Cc1ncco1)c1nnc(C)n1-2 [I-20, (S)-(6-hydroxy-2-(4-hydroxyphenyl)benzo[b]thiophen-3-yl)(4-(2-(2-((4-(2,3,9-trimethyl-6-(oxazol-2-ylmethyl)-6H-thieno[3,2-f][1,2,4]triazolo[4,3-a][1,4]diazepin-4-yl)phenyl)ethynyl)-7-azaspiro[3.5]nonan-7-yl)ethoxy)phenyl) methanone] |  |  | GI50 [1, 6]: < 50 nM; GI50 [3, 7]: < 50 nM
20 | < 50 nM | Cc1sc2c(c1C)C(c1ccc(C3CN(CC4CC(CN5CC(c6ccc(C7=C(c8ccccc8)CCCc8cc(C(=O)O)ccc87)cc6)C5)C4)C3)cc1)=N[C@@H](C)c1nnc(C)n1-2 (stereo partly drawn) [IV-62] | < 50 nM | 500 to 2500 nM | 
21 | 50 to 500 nM | Cc1sc2c(c1C)C(c1ccc(N3CC(CC4(O)CCN(CC5CN(c6ccc([C@H]7c8ccc(O)cc8CC[C@H]7c7ccc(F)cc7)cc6)C5)CC4)C3)cc1)=N[C@@H](C)c1nnc(C)n1-2 [III-238] | 50 to 500 nM | 500 to 2500 nM | 
22 | 50 to 500 nM | Cc1sc2c(c1C)C(c1ccc(N3CCC(O)(CN4CCN(c5cc(F)c([C@H]6c7ccc(O)cc7CC[C@H]6c6ccccc6)c(F)c5)CC4)CC3)cc1)=N[C@@H](C)c1nnc(C)n1-2 [III-187] | < 50 nM | 50 to 500 nM | 
23 | 50 to 500 nM | Cc1sc2c(c1C)C(c1ccc(OCCN3CCN(CCOc4ccc([C@@H]5c6ccc(O)cc6CC[C@@H]5c5ccccc5)cc4)CC3)cc1)=N[C@@H](Cc1ncco1)c1nnc(C)n1-2 [III-109] | < 50 nM | 50 to 500 nM | 
24 | 50 to 500 nM | Cc1sc2c(c1C)C(c1ccc(N3CCC(O)(CN4CCN(c5ccc([C@@H]6c7ccc(C(=O)O)cc7CC[C@@H]6c6ccccc6)cc5)CC4)CC3)cc1)=N[C@@H](C)c1nnc(C)n1-2 [III-188] | < 50 nM | 50 to 500 nM | 
25 | 50 to 500 nM | Cc1cc(N2CCN(CC3(O)CCN(c4ccc(C5=N[C@@H](C)c6nnc(C)n6-c6sc(C)c(C)c65)cc4)CC3)CC2)ccc1[C@@H]1c2ccc(O)cc2CC[C@@H]1c1ccc(F)cc1 [III-298] | 50 to 500 nM | 50 to 500 nM | 
26 | < 50 nM | Cc1sc2c(c1C)C(c1ccc(NCCCC3CCN(CCOc4ccc([C@@H]5c6ccc(O)cc6CC[C@@H]5c5ccccc5)cc4)CC3)cc1)=NC(Cc1ncco1)c1nnc(C)n1-2 (stereo partly drawn) [III-48] | < 50 nM | 50 to 500 nM | 
